Data on one molecule can be found in patent US7739055B2, “Methods and systems for generating and evaluating peptides” (priority 2005, dated 2010).

For this assay, the system named is B. cereus.

Structures are written as SMILES. Where a SMILES comes first, the peptide text is derived from it.

On to `CC[C@H](C)[C@H](NC(=O)[C@H](CC(C)C)NC(=O)[C@H](C)NC(=O)[C@@H]1CCCN1C(=O)[C@H](C)NC(=O)[C@@H](NC(=O)[C@H](CCCCN)NC(=O)[C@@H](N)CCCNC(=N)N)C(C)C)C(=O)N[C@@H](CCCCN)C(=O)N[C@@H](CO)C(=O)N[C@@H](Cc1ccccc1)C(=O)N[C@H](C(=O)N[C@@H](Cc1ccccc1)C(=O)N[C@@H](CC(C)C)C(=O)N[C@@H](Cc1ccccc1)C(=O)N[C@@H](CCCCN)C(=O)N[C@@H](Cc1ccccc1)C(=O)N[C@@H](CCCCN)C(=O)N[C@@H](CCCCN)C(=O)NCC(=O)O)C(C)C` [Shuffled 51] (H-RKVAPALIKSFVFLFKFKKG-OH; N-terminus and C-terminus assumed), for which the “MIC B. cereus” value is reported as “+ (key: +: MIC greater than 256 ug/mL; ++: MIC greater than 128 ug/mL, not sufficiently soluble to test as 256 ug/mL)”.
